Source: patent publication US8263606B2 (Xenon Pharmaceuticals Inc., priority 2008, dated 2012)

Columns and labels:
CYP3A4 = CYP3A4 (Homo sapiens, UniProt P08684); test: Cytochrome P450 (CYP450) Inhibition Assay, CYP3A4 (Vivid fluorescence, BOMCC substrate); settings: human, P450 Baculosomes (recombinant CYP3A4), probe BOMCC (Vivid substrate)
sodium channel = test: Guanidine influx assay (14C-guanidine radiotracer flux, in vitro); format: cell-based, human or rat; settings: guanidine influx assay using a known cell line that expresses a sodium channel
In short: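 Human or rat sodium channels stably expressed in endogenous or recombinant cells, plated ~100,000 cells/well for 20-24 h at 37 °C. Cells were treated with test agent in low-sodium choline HEPES saline plus aconitine and 14C-guanidine at ambient temperature, washed, and counted by scintillation; IC50 from 4-parameter logistic fit.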

Sequence of CYP3A4 (P08684 whole entry): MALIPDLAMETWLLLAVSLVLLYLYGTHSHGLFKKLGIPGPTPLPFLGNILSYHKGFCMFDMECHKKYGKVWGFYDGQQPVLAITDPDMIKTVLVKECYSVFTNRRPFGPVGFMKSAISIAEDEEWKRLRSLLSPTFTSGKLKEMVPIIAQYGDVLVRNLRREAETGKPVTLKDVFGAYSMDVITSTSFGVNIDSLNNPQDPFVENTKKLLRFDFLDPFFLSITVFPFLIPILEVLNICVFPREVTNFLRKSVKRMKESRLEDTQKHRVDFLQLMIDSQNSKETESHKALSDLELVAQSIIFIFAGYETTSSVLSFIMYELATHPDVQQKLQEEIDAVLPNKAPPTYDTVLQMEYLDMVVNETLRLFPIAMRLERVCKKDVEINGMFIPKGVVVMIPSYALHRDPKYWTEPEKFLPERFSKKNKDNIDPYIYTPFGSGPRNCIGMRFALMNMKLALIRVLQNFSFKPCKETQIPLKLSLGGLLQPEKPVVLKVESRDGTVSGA

Row | Structure (SMILES) | inhibition at 10 µM (CYP3A4) [%] | IC50 (sodium channel; activity level class) [nM] | melting point [°C] | IC50 (sodium channel) [nM]
1 | COc1ccc(CN2C(=O)C3(COc4cc(OC)c(C#N)cc43)c3ccccc32)cc1 (stereo not drawn) [Example 9.46, 6-methoxy-1′-(4-methoxybenzyl)-2′-oxo-1′,2′-dihydrospiro[1-benzofuran-3,3′-indole]-5-carbonitrile] | > 50 | 100 to 1000 | 207 to 208 | 
2 | COc1cc2c(cc1C#N)C1(CO2)C(=O)N(Cc2ccccn2)c2ccccc21 (stereo not drawn) [Example 9.47, 6-methoxy-2′-oxo-1′-(pyridin-2-ylmethyl)-1′,2′-dihydrospiro[1-benzofuran-3,3′-indole]-5-carbonitrile] | > 50 | 1000 to 10000 | 187 to 189 | 
3 | N#Cc1cc2c(cc1F)OCC21C(=O)N(Cc2ccccn2)c2ccccc21 (stereo not drawn) [Example 9.48, 6-fluoro-2′-oxo-1′-(pyridin-2-ylmethyl)-1′,2′-dihydrospiro[1-benzofuran-3,3′-indole]-5-carbonitrile] | > 50 | 1000 to 10000 | 108 to 109 | 
4 | N#Cc1cc2c(cc1F)OCC21C(=O)N(Cc2ncccc2C(F)(F)F)c2ccccc21 (stereo not drawn) [Example 9.51, 6-fluoro-2′-oxo-1′-{[3-(trifluoromethyl)pyridin-2-yl]methyl}-1′,2′-dihydrospiro[1-benzofuran-3,3′-indole]-5-carbonitrile] | < 50 |  | 209 to 211 | 1000 to 10000
5 | COC(=O)c1cccc(CN2C(=O)C3(COc4cc5c(cc43)OCCO5)c3ccccc32)c1 (stereo not drawn) [Example 9.53, methyl 3-[(2′-oxo-2,3-dihydrospiro[furo[2,3-g][1,4]benzodioxine-8,3′-indol]-1′(2′H)-yl)methyl]benzoate] | > 50 |  | 89 to 97 | 1 to 100
6 | Cc1noc2cc3c(cc12)C1(CO3)C(=O)N(CCC(C)C)c2ccccc21 (stereo not drawn) [Example 9.55, 3-methyl-1′-(3-methylbutyl)spiro[furo[3,2-f][1,2]benzisoxazole-5,3′-indol]-2′(1′H)-one] | > 50 |  | 135 to 138 | 1 to 100
7 | Cc1noc2cc3c(cc12)C1(CO3)C(=O)N(Cc2cnccn2)c2ccccc21 (stereo not drawn) [Example 9.56, 3-methyl-1′-(pyrazin-2-ylmethyl)spiro[furo[3,2-f][1,2]benzisoxazole-5,3′-indol]-2′(1′H)-one] | < 50 |  | 170 to 173 | 1 to 100
8 | Cc1noc2cc3c(cc12)C1(CO3)C(=O)N(Cc2ncccc2F)c2ccccc21 (stereo not drawn) [Example 9.57, 1′-[(3-fluoropyridin-2-yl)methyl]-3-methylspiro[furo[3,2-f][1,2]benzisoxazole-5,3′-indol]-2′(1′H)-one] | < 50 |  | 167 to 169 | 100 to 1000
9 | COC(=O)c1coc(CN2C(=O)C3(COc4cc5onc(C)c5cc43)c3ccccc32)n1 (stereo not drawn) [Example 9.58, methyl 2-[(3-methyl-2′-oxospiro[furo[3,2-f][1,2]benzisoxazole-5,3′-indol]-1′(2′H)-yl)methyl]-1,3-oxazole-4-carboxylate] | < 50 |  | 148 to 152 | 100 to 1000
10 | O=C1c2ccccc2C(=O)N1CCCN1C(=O)C2(COc3cc4c(cc32)CCO4)c2ccccc21 (stereo not drawn) [Example 9.66, 2-[3-(2′-oxo-5,6-dihydrospiro[benzo[1,2-b:5,4-b′]difuran-3,3′-indol]-1′(2′H)-yl)propyl]-1H-isoindole-1,3(2H)-dione] | > 50 |  | 214 to 217 | 1 to 100
11 | O=C1N(Cc2ccc(OCc3ccccc3)cn2)c2ccccc2C12COc1ccc3nonc3c12 (stereo not drawn) [Example 9.67, 1-{[5-(benzyloxy)pyridin-2-yl]methyl}spiro[furo[3,2-e][2,1,3]benzoxadiazole-8,3′-indol]-2′(1′H)-one] | < 50 |  | 209 to 212 | 100 to 1000
12 | COCCOCCN1C(=O)C2(COc3cc4c(cc32)OCCO4)c2c1ccc1ncsc21 (stereo not drawn) [Example 9.71, 6′-[2-(2-methoxyethoxy)ethyl]-2,3-dihydrospiro[furo[2,3-g][1,4]benzodioxine-8,8′-[1,3]thiazolo[5,4-e]indol]-7′(6′H)-one] | > 50 |  | 156 to 158 | 100 to 1000
13 | O=C1N(Cc2ccccn2)c2ccc3ncsc3c2C12COc1cc3c(cc12)OCCO3 (stereo not drawn) [Example 9.72, 6′-(pyridin-2-ylmethyl)-2,3-dihydrospiro[furo[2,3-g][1,4]-benzodioxine-8,8′-[1,3]thiazolo[5,4-e]indol]-7′(6′H)-one] | > 50 |  | 156 to 158 | 100 to 1000
14 | COCCOCCN1C(=O)C2(COc3cc4c(cc32)OCCO4)c2c(OC)cc(OC)cc21 (stereo not drawn) [Example 9.73, 4′,6′-dimethoxy-1′-[2-(2-methoxyethoxy)ethyl]-2,3-dihydrospiro[furo[2,3-g][1,4]benzodioxine-8,3′-indol]-2′(1′H)-one] | > 50 |  | 158 to 160 | 1000 to 10000
15 | COc1cc(OC)c2c(c1)N(Cc1ccccn1)C(=O)C21COc2cc3c(cc21)OCCO3 (stereo not drawn) [Example 9.74, 4′,6′-dimethoxy-1′-(pyridin-2-ylmethyl)-2,3-dihydrospiro[furo[2,3-g][1,4]benzodioxine-8,3′-indol]-2′(1′H)-one] | > 50 |  | 187 to 188 | 100 to 1000
16 | CN1CCC(CN2C(=O)C3(COc4cc5c(cc43)CCO5)c3ccccc32)CC1 (stereo not drawn) [Example 11.10, 1′-[(1-methylpiperidin-4-yl)methyl]-5,6-dihydrospiro[benzo[1,2-b:5,4-b′]difuran-3,3′-indol]-2′(1′H)-one] | > 50 |  | 155 to 158 | ≥ 10000
17 | O=C(O)c1cccc(CN2C(=O)C3(COc4cc5c(cc43)CCO5)c3ccccc32)c1 (stereo not drawn) [Example 11.12, 3-[(2′-oxo-5,6-dihydrospiro[benzo[1,2-b:5,4-b′]difuran-3,3′-indol]-1′(2′H)-yl)methyl]benzoic acid] | < 50 |  | > 250 | 1000 to 10000
18 | O=C1N(Cc2ccc(-c3noc(C(F)(F)F)n3)cc2)c2ccccc2C12COc1cc3c(cc12)CCO3 (stereo not drawn) [Example 11.13, 1′-{4-[5-(trifluoromethyl)-1,2,4-oxadiazol-3-yl]benzyl}-5,6-dihydrospiro[benzo[1,2-b:5,4-b′]difuran-3,3′-indol]-2′(1′H)-one] | < 50 |  | 178 to 179 | 100 to 1000

The next lines start with the values.

Row | inhibition at 10 µM (CYP3A4) [%] | IC50 (sodium channel; activity level class) [nM] | melting point [°C] | IC50 (sodium channel) [nM] | Structure (SMILES)
19 | < 50 | 1 to 100 | 58 to 59 |  | CCOC(=O)CN1C(=O)C2(COc3cc4c(cc32)OCCO4)c2ccccc21 (stereo not drawn) [Example 9.44, ethyl (2′-oxo-2,3-dihydrospiro[furo[2,3-g][1,4]benzodioxine-8,3′-indol]-1′(2′H)-yl)acetate]
20 | > 50 | 1 to 100 | 55 to 57 |  | CC1(C)OC[C@H](CN2C(=O)C3(COc4cc5c(cc43)OCCO5)c3ccccc32)O1 (stereo partly drawn) [Example 9.45, 1′-{[(4S)-2,2-dimethyl-1,3-dioxolan-4-yl}methyl]-2,3-dihydrospiro[furo[2,3-g][1,4]benzodioxine-8,3′-indol]-2′(1′H)-one]
21 | < 50 |  | 167 to 169 | 1 to 100 | COC(=O)c1ccc(CN2C(=O)C3(COc4cc5c(cc43)OCCO5)c3ccccc32)cc1 (stereo not drawn) [Example 9.59, methyl 4-[(2′-oxo-2,3-dihydrospiro[furo[2,3-g][1,4]benzodioxine-8,3′-indol]-1′(2′H)-yl)methyl]benzoate]
22 | > 50 |  | 88 to 100 | 100 to 1000 | O=C1N(CC2CN(Cc3ccccc3)CCO2)c2ccccc2C12COc1cc3c(cc12)OCCO3 (stereo not drawn) [Example 9.60, 1′-[(4-benzylmorpholin-2-yl)methyl]-2,3-dihydrospiro[furo[2,3-g][1,4]benzodioxine-8,3′-indol]-2′(1′H)-one]
23 | > 50 |  | 187 to 189 | 100 to 1000 | O=C1N(Cc2ccnnc2)c2ccccc2C12COc1cc3c(cc12)CCO3 (stereo not drawn) [Example 10, 1-(pyridazin-4-ylmethyl)-5,6-dihydrospiro[benzo[1,2-b:5,4-b′]difuran-3,3′-indol]-2′(1′H)-one]
24 | > 50 |  | 200 to 202 | 1 to 100 | CN(C)c1ncc(CN2C(=O)C3(COc4cc5c(cc43)OCO5)c3ccccc32)s1 (stereo not drawn) [Example 11.1, 1′-{[2-(dimethylamino)-1,3-thiazol-5-yl]methyl}spiro[furo[2,3-f][1,3]benzodioxole-7,3′-indol]-2′(1′H)-one]
25 | > 50 |  | 97 to 99 | 100 to 1000 | O=C1N(Cc2cnc(N3CCOCC3)s2)c2ccccc2C12COc1cc3c(cc12)OCO3 (stereo not drawn) [Example 11.2, 1′-[(2-morpholin-4-yl-1,3-thiazol-5-yl)methyl]spiro[furo[2,3-f][1,3]benzodioxole-7,3′-indol]-2′(1′H)-one]
26 | > 50 |  | 195 to 197 | 100 to 1000 | O=C1N(Cc2cnc(N3CCCCC3)s2)c2ccccc2C12COc1cc3c(cc12)OCO3 (stereo not drawn) [Example 11.3, 1′-[(2-piperidin-1-yl-1,3-thiazol-5-yl)methyl]spiro[furo[2,3-f][1,3]benzodioxole-7,3′-indol]-2′(1′H)-one]
27 | > 50 |  | 164 to 166 | 1 to 100 | COc1ncc(CN2C(=O)C3(COc4cc5c(cc43)OCO5)c3ccccc32)s1 (stereo not drawn) [Example 11.4, 1′-[(2-methoxy-1,3-thiazol-5-yl)methyl]spiro[furo[2,3-f][1,3]benzodioxole-7,3′-indol]-2′(1′H)-one]
